Values quoted from earlier work in patent US20120034276A1, “SOLID PREPARATION” (ASKA Pharmaceutical Co., Ltd., priority 2009, published 2012).
Residues, ends and D or L forms follow the SMILES beside them.

conditions: numeral in parenthesis, for reference; first or second dissociation step

SMILES | acid dissociation constant pKa
NCC(=O)NC(Cc1c[nH]cn1)C(=O)NCC(=O)O (racemic) [glycyl-DL-histidylglycine] | 3.26
O=C(O)c1cccc(C(=O)O)n1 [2,6-pyridinedicarboxylic acid] | 2.09
C[C@H](N)C(=O)N[C@@H](C)C(=O)O [L-alanyl-L-alanine] (H-Ala-Ala-OH) | 3.20
C[C@H](N)C(=O)NCC(=O)O [L-alanylglycine] (H-Ala-Gly-OH) | 3.10
C[C@H](N)C(=O)NCC(=O)NCC(=O)NCC(=O)O [L-alanylglycylglycylglycine] (H-AGGG-OH) | 3.18
N[C@@H](Cc1c[nH]cn1)C(=O)NCC(=O)O [L-histidylglycine] (H-His-Gly-OH) | 2.84
CN(C)CC(=O)O [N,N-dimethylglycine] | 2.08
CNCC(=O)O [N-methylglycine] | 2.20
C[C@H](N)C(=O)O [alanine] | 2.30
Nc1ccc(C(=O)O)cc1 [aminobenzoic acid] | 2.02-3.12
N=C(N)NCCC[C@H](N)C(=O)O [arginine] | 2.05
N[C@@H](CC(=O)O)C(=O)O [aspartic acid] | 1.93
O=C(O)CC(O)(CC(=O)O)C(=O)O [citric acid] | 2.87
NC(=O)NCCC[C@H](N)C(=O)O [citrulline] | 2.43
O=C(O)[C@H](O)[C@@H](O)[C@H](O)[C@H](O)CO [gluconic acid] | 3.86
N[C@@H](CCC(=O)O)C(=O)O [glutamic acid] | 2.18
O=C(O)CO [glycolic acid] | 3.63
C[C@H](NC(=O)CN)C(=O)O [glycyl-L-alanine] (H-Gly-Ala-OH) | 3.07
O=[PH](O)O [phosphonic acid] | 1.5
CC(C)[C@H](N)C(=O)O [valine] | 2.26

Continued, values first:

acid dissociation constant pKa | SMILES
2.54 | NCC(=O)N[C@@H](Cc1c[nH]cn1)C(=O)O [glycyl-L-histidine] (H-Gly-His-OH)
3.18 | C[C@H](NC(=O)CNC(=O)CN)C(=O)O [glycylglycyl-L-alanine]
2.72 | NCC(=O)NCC(=O)N[C@@H](Cc1c[nH]cn1)C(=O)O [glycylglycyl-L-histidine] (H-Gly-Gly-His-OH)
2.90 | NCC(=O)NCC(=O)NCC(=O)N[C@@H](Cc1c[nH]cn1)C(=O)O [glycylglycylglycyl-L-histidine] (H-GGGH-OH)
3.18 | O=CC(=O)O [glyoxylic acid]
3.66 | CC(O)C(=O)O (centres unmarked) [lactic acid]
2.04 | NCCCC[C@H](N)C(=O)O [lysine]
3.24 | O=C(O)CC(O)C(=O)O (centres unmarked) [malic acid]
2.15 | CSCC[C@H](N)C(=O)O [methionine]
2.30 | CCCC[C@H](N)C(=O)O [norleucine]
2.26 | N[C@@H](Cc1ccccc1)C(=O)O [phenylalanine]
2.26 | CC(=O)C(=O)O [pyruvic acid]
2.13 | N[C@@H](CO)C(=O)O [serine]
4.00 | O=C(O)CCC(=O)O [succinic acid]
2.82-2.99 | O=C(O)C(O)C(O)C(=O)O (centres unmarked) [tartaric acid]
2.21 | C[C@@H](O)[C@H](N)C(=O)O [threonine]
2.35 | N[C@@H](Cc1c[nH]c2ccccc12)C(=O)O [tryptophan]
